The results in this text go back to publication PMC6660600, “Odorant Inhibition in Mosquito Olfaction” (iScience, 2019).

Holding throughout (test): voltage clamp of Xenopus oocytes
Holding throughout (format): cell-based

The target of assay [1] is T1, CquiOR32-CquiOrco (Culex quinquefasciatus, UniProt A0A3S7SHH6).
T1 construct: gene OR32; full-length OR coexpressed with Orco in Xenopus oocytes; heteromeric ligand-gated cation channel; with Odorant receptor coreceptor Orco
T1 sequence (A0A3S7SHH6 1-397): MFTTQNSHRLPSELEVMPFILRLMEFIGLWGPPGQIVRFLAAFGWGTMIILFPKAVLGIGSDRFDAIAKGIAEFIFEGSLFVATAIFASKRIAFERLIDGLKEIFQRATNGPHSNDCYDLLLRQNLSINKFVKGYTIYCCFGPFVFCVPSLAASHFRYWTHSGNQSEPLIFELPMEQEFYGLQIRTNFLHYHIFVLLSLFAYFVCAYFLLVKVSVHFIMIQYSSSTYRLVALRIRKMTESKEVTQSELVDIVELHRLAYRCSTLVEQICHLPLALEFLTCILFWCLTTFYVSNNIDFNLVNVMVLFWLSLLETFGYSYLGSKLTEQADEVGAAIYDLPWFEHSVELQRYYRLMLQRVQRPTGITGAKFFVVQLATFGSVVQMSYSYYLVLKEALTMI
T1 sequence (Q309I4 1-480 partner): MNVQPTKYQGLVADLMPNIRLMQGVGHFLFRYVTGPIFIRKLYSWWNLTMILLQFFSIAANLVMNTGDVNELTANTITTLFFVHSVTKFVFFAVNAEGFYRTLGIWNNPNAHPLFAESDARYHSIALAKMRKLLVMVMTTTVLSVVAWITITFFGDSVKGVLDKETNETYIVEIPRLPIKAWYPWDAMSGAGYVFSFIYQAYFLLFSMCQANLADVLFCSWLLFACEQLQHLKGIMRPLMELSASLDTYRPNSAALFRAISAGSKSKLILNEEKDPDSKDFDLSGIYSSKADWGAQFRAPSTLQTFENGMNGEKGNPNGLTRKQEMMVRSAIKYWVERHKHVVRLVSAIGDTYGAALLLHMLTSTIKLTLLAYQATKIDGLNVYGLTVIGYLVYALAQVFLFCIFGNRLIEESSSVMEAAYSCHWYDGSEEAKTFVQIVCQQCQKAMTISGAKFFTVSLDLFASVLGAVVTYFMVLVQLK
As to conditions: agonist (inward current), absolute value, coexpressed with CquiOrco.

Assay [2] has as its target T1, CquiOR32-CquiOrco. To be noted: agonist (inward current), dose-dependent, coexpressed with CquiOrco.
Assay [3] concerns the target T1, CquiOR32-CquiOrco. As to conditions: inhibitor (reverse current), coexpressed with CquiOrco.
The next assay deals with T2, CquiOrco (Culex quinquefasciatus, UniProt Q309I4).
T2 construct: full-length Orco expressed alone in Xenopus oocytes
T2 sequence (Q309I4 1-480): T1 sequence (Q309I4 1-480 partner)
To be noted: Orco agonist; Orco expressed alone.

Assay [4] has as its target T1, CquiOR32-CquiOrco. As to conditions: inhibitor (reverse current), absolute value, coexpressed with CquiOrco.

With `CCC(C)=O` [2-butanone], at CquiOR32-CquiOrco [1], the “inward current at 1 mM” value was 45 ± 7 nA. Same read-out and setting: as for `OCCc1ccccc1` [2-phenylethanol], the figure is 44 ± 9 nA.

As to `CC1=NCCS1` [2MT, 2-methyl-2-thiazoline], the inward current result on CquiOR32-CquiOrco [2] (1 mM (Figure 1A)) was “various odorants, including cyclohexanone, methyl salicylate, and 2-methyl-2-thiazoline”. On the same count and under the same terms, as for `O=C1CCCCC1` [CYC, cyclohexanone], the entry is “various odorants, including cyclohexanone, methyl salicylate, and 2-methyl-2-thiazoline”. In the case of `CCN(CC)C(=O)c1cccc(C)c1` [DEET], the reverse current entry on CquiOR32-CquiOrco [3] (1 mM (Figure 1A)) is “eucalyptol, fenchone, DEET, picaridin, IR3535, PMD, and other compounds generated currents in reverse direction”.

As for `CC12CCC(CC1)C(C)(C)O2` [EUC, eucalyptol], the reverse current entry at CquiOR32-CquiOrco [3] (dose-dependent, also reduces methyl salicylate response, proposed negative allosteric modulator) is reported as “eucalyptol generated currents in the reverse direction”. Take `CC12CCC(C1)C(C)(C)C2=O` (stereo not drawn) [FEN, fenchone]: at CquiOR32-CquiOrco [3] (1 mM (Figure 1A)), the reverse current result is “eucalyptol, fenchone, DEET, picaridin, IR3535, PMD, and other compounds generated currents in reverse direction”. With `COC(=O)c1ccccc1O` [MS, methyl salicylate], the inward current entry on CquiOR32-CquiOrco [2] was “Methyl salicylate elicited inward currents, and eucalyptol generated currents in the reverse direction”. Consider `CCc1ccc(NC(=O)CSc2nnc(-c3cccnc3)n2CC)cc1` [VUAA-1], for which, on CquiOrco, the current entry is reported as “Response of a CquiOrco-expressing oocyte to Orco agonist, VUAA-1, is displayed in an inset”. In the case of `CC(=O)c1ccccc1` [acetophenone], the “inward current at 1 mM” value on CquiOR32-CquiOrco [1] was 58 ± 12 nA. On to `COc1ccccc1O` [guaiacol], for which the “inward current at 1 mM” value on CquiOR32-CquiOrco [1] is 101 ± 11 nA. As to `CCC(C)OC(=O)N1CCCCC1CCO` (stereo not drawn) [picaridin], the reverse current result at CquiOR32-CquiOrco [3] (1 mM (Figure 1A)) was “eucalyptol, fenchone, DEET, picaridin, IR3535, PMD, and other compounds generated currents in reverse direction”. Take `CC1=CCC(=C(C)C)CC1` [terpinolene]: the “reverse current at 1 mM” value at CquiOR32-CquiOrco [4] is recorded as 38 ± 8 nA.

For `CC1=CC=C(C(C)C)CC1` [α-terpinene], the “reverse current at 1 mM” value on CquiOR32-CquiOrco [4] was 43 ± 5 nA.

In the case of `CCC1CCC(=O)O1` (stereo not drawn) [γ-hexalactone], on CquiOR32-CquiOrco [1], the “inward current at 1 mM” value was 115 ± 14 nA.
